Assays:
[1] = test system: Her2-A20 cell; assay: Her2-A20 cell subcutaneous tumor, Herceptin and compound c (Experimental Example 19); format: in vivo, BALB/c-nude mice; settings: Herceptin 20 mg/kg i.p. (2 doses) + compound c 10 mg/kg/day oral; 15 days after administration
Experimental: At first, A20 cell line (mouse B lymphoma) was transfected with human Her2 cDNA using MIGR1 vector to prepare transformed cells (hereinafter, “Her2-A20 cell”). The Her2-A20 cells (5×10^6) were subcutaneously inoculated into BALB/c-nude mice. […] Compound c or physiological saline was administered once a day, 5 doses in total (day 0 to day 4). […] Compound c or physiological saline was administered once a day, 7 doses in total (day 7 to day 13).

[2] = molecular target: human PAI-1 (Homo sapiens, UniProt P05121); assay: Measurement of PAI-1 inhibitory activity of compound group 1 (t-PA, S-2288 chromogenic substrate); settings: read-out: PAI-1 activity %
Sequence of human PAI-1 (P05121 24-402): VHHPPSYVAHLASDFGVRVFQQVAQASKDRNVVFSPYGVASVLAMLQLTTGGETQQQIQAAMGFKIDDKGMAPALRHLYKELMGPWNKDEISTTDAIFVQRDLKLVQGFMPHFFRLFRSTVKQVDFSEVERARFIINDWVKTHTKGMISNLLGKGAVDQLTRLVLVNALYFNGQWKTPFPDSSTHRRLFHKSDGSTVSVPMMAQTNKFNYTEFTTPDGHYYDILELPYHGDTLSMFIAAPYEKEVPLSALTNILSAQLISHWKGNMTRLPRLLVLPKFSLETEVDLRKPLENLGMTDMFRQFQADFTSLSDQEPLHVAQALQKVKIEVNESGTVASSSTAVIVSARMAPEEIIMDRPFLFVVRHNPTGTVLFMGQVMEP
Experimental: Subsequently, human-derived tissue plasminogen activator (t-PA) (manufactured by American Diagnostica, Inc. (USA); the same applies hereinafter) adjusted to 0.35 pmol/μL was added thereto, and the mixture was further incubated at 37° C. for 15 minutes.

Compound: O=C(Nc1ccc(Cl)cc1C(=O)O)c1cccc(-c2ccccc2)c1 [Example 4, 2-[(biphenyl-3-ylcarbonyl)amino]-5-chlorobenzoic acid]
- tumor volume versus other groups [1]: significantly smaller
- activity at 20 µM [2]: 47.7%
- activity at 50 µM [2]: 7.6%
